# US8778973B2, “Alkene oxindole derivatives” (Hoffmann-La Roche Inc., priority 2009, dated 2014)
# System: Recombinant human AMPK proteins (α1β1γ1, α2β1γ1, α1(1-335), α1(1-394) or α2(1-394))
# Assay: Scintillation Proximity Assay (SPA) of AMPK activation
# Format: biochemical
# Details: activator concentration for 50% of maximal enzyme activity; 50 nM recombinant AMPK, 2 μM ATP, 30° C., 2 hr
# Protocol: Recombinant human AMPK α1β1γ1, α2β1γ1 or AMPK α subunit truncations α1(1-335), α1(1-394) and α2(1-394) were constructed, expressed and purified as described previously (Pang, T., Zhang, Z. S., Gu, M., Qiu, B. Y., Yu, L. F., Cao, P. R., Shao, W., Su, M. B., Li, J. Y., Nan, F. J., and Li, J. (2008)). Rat liver AMPK heterotrimer enzyme was obtained from Upstate (Billerica, Mass., U.S.A.).
# Scintillation Proximity Assay
# Before the Scintillation Proximity Assay (SPA) assay, 200 nM recombinant AMPK proteins (α1β1γ1, α2β1γ1, α1(1-335), α1(1-394) or α2(1-394)) were fully phosphorylated as described previously (Pang et al., 2008). SPA reactions were performed in 96-well plates at a final volume of 501 containing 20 mM Tris-HCl pH 7.5, 5 mM MgCl2, 1 mM DTT, 2 μM biotin-SAMS, 2 μM ATP, 0.2 μCi/well [γ-^33P]ATP, and various amount of activator. Reactions were initiated by the addition of 50 nM recombinant AMPK proteins to the reaction solutions and incubated at 30° C. for 2 hr. After that, reactions were terminated by the addition of 401 stop solution containing 80 μg streptavidin-coated SPA beads per well, 50 mM EDTA, 0.1% Triton X-100 in PBS, pH 7.5 and incubated for 1 hr. Finally, a 160 ul suspension solution containing 2.4 M CsCl, 50 mM EDTA, and 0.1% Triton X-100 in PBS (pH 7.5) was added to the reaction solution to suspend SPA beads completely. SPA signals were determined with a Wallac MicroBeta plate counter (PerkinElmer) 30 min later for calculation of the amount of product formed. The amount of products formed in 2 hr was plotted against activator concentrations to determine the effective concentration of the activator (EC50) required for 50% of maximal enzyme activity.
# Compounds as described above have EC50 values between 0.5 uM and 50 uM, preferred compounds have EC50 values between 0.5 uM and 10 uM, particularly preferred compounds have EC50 values between 0.5 uM and 1 uM.
row,Structure (SMILES),EC50 [µM]
1,"COC(=O)c1cccc(CN2C(=O)/C(=C(/c3ccc(C(F)(F)F)cc3)C(C)C)c3ccccc32)c1 [Example 88, 3-{3-[2-Methyl-1-(4-trifluoromethyl-phenyl)-prop-(E)-ylidene]-2-oxo-2,3-dihydro-indol-1-ylmethyl}-benzoic acid methyl ester]",2.59
2,"O=C(O)c1cccc(CN2C(=O)/C(=C(\c3ccccc3)c3cccnc3)c3ccccc32)c1 [Example 63, 3-{2-Oxo-3-[1-phenyl-1-pyridin-3-yl-meth-(E)-ylidene]-2,3-dihydro-indol-1-ylmethyl}-benzoic acid]",3.24
3,"COC(=O)c1cccc(CN2C(=O)/C(=C(\c3ccccc3)c3ccc(Cl)cc3)c3ccccc32)c1 [Example 5, 3-((3-((4-Chlorophenyl)(phenyl)meth-(E)-ylene)-2-oxoindolin-1-yl)methyl)benzoic acid methyl ester]",2.3
4,"O=C(O)c1cccc(CN2C(=O)/C(=C(\c3ccccc3)c3cccc(C(F)(F)F)c3)c3ccccc32)c1 [Example 66, 3-{2-Oxo-3-[1-phenyl-1-(3-trifluoromethyl-phenyl)-meth-(E)-ylidene]-2,3-dihydro-indol-1-ylmethyl}-benzoic acid]",2.44
5,"CC(C)c1ccc(/C(=C2/C(=O)N(Cc3cccc(C(=O)O)c3)c3ccccc32)c2ccccc2)cc1 [Example 71, 3-{3-[1-(4-Isopropyl-phenyl)-1-phenyl-meth-(E)-ylidene]-2-oxo-2,3-dihydro-indol-1-ylmethyl}-benzoic acid]",4.02
6,"O=C(O)c1cccc(CN2C(=O)/C(=C(\c3ccccc3)c3cccc(Cl)c3)c3ccccc32)c1 [Example 52, 3-{3-[1-(3-Chloro-phenyl)-1-phenyl-meth-(E)-ylidene]-2-oxo-2,3-dihydro-indol-1-ylmethyl}-benzoic acid]",6.55
7,"COC(=O)c1cc(N2C(=O)/C(=C(\C)c3ccccc3)c3ccccc32)ccc1C [Example 3, 2-Methyl-5-{2-oxo-3-[1-phenyl-eth-(E)-ylidene]-2,3-dihydro-indol-1-yl}-benzoic acid methyl ester]",5.61
8,"COC(=O)c1cccc(CN2C(=O)/C(=C(\c3ccccc3)c3ccc(Cl)cc3)c3c(F)cccc32)c1 [Example 25, 3-{3-[1-(4-Chloro-phenyl)-1-phenyl-meth-(E)-ylidene]-4-fluoro-2-oxo-2,3-dihydro-indol-1-ylmethyl}-benzoic acid methyl ester]",2.73
9,"COC(=O)c1ccc(CN2C(=O)/C(=C(\c3ccccc3)c3ccc(Cl)cc3)c3ccccc32)cc1 [Example 21, 4-{3-[1-(4-Chloro-phenyl)-1-phenyl-meth-(E)-ylidene]-2-oxo-2,3-dihydro-indol-1-ylmethyl}-benzoic acid methyl ester]",6.07
10,"O=C(O)c1cccc(CN2C(=O)/C(=C(\c3ccccc3)c3cc(Cl)cc(Cl)c3)c3ccccc32)c1 [Example 54, 3-{3-[1-(3,5-Dichloro-phenyl)-1-phenyl-meth-(E)-ylidene]-2-oxo-2,3-dihydro-indol-1-ylmethyl}-benzoic acid]",5.14
11,"O=C(O)c1cccc(CN2C(=O)/C(=C(\c3ccccc3)c3cccc(Cl)c3Cl)c3ccccc32)c1 [Example 55, 3-{3-[1-(2,3-Dichloro-phenyl)-1-phenyl-meth-(E)-ylidene]-2-oxo-2,3-dihydro-indol-1-ylmethyl}-benzoic acid]",2.94
12,"O=C(O)c1cccc(CN2C(=O)/C(=C(/c3ccccc3)c3ccc(Cl)cc3)c3ccccc32)c1 [Example 68, 3-{3-[1-(4-Chloro-phenyl)-1-phenyl-meth-(Z)-ylidene]-2-oxo-2,3-dihydro-indol-1-ylmethyl}-benzoic acid]",2.12
13,"CC(C)/C(=C1\C(=O)N(Cc2cccc(C(=O)O)c2)c2ccccc21)c1ccsc1 [Example 106, 3-{3-[2-Methyl-1-thiophen-3-yl-prop-(E)-ylidene]-2-oxo-2,3-dihydro-indol-1-ylmethyl}-benzoic acid]",1.61
14,"COC(=O)c1cccc(CN2C(=O)/C(=C(\c3ccc(Cl)cc3)c3ccc(C(F)(F)F)cc3)c3ccccc32)c1 [Example 35, 3-{3-[1-(4-Chloro-phenyl)-1-(4-trifluoromethyl-phenyl)-meth-(Z)-ylidene]-2-oxo-2,3-dihydro-indol-1-ylmethyl}-benzoic acid methyl ester]",2.95
15,"O=C(O)c1cccc(CN2C(=O)/C(=C(\c3ccccc3)c3cc(C(F)(F)F)cc(C(F)(F)F)c3)c3ccccc32)c1 [Example 65, 3-{3-[1-(3,5-Bis-trifluoromethyl-phenyl)-1-phenyl-meth-(E)-ylidene]-2-oxo-2,3-dihydro-indol-1-ylmethyl}-benzoic acid]",3.41
16,"COC(=O)c1cccc(CN2C(=O)/C(=C(/Cc3ccc(Cl)cc3)c3ccccc3)c3ccccc32)c1 [Example 79, 3-{3-[2-(4-Chloro-phenyl)-1-phenyl-eth-(Z)-ylidene]-2-oxo-2,3-dihydro-indol-1-ylmethyl}-benzoic acid methyl ester]",1.69
17,"COC(=O)c1cccc(CN2C(=O)/C(=C(\c3ccccc3)c3ccc(Cl)cc3)c3cc(F)ccc32)c1 [Example 18, 3-{3-[1-(4-Chloro-phenyl)-1-phenyl-meth-(E)-ylidene]-5-fluoro-2-oxo-2,3-dihydro-indol-1-ylmethyl}-benzoic acid methyl ester]",5.66
18,"COC(=O)c1ccc(CN2C(=O)/C(=C(\c3ccccc3)c3ccc(Cl)cc3)c3ccccc32)nc1 [Example 38, 6-{3-[1-(4-Chloro-phenyl)-1-phenyl-meth-(E)-ylidene]-2-oxo-2,3-dihydro-indol-1-ylmethyl}-nicotinic acid methyl ester]",2.91
19,"O=C(O)c1cccc(CN2C(=O)/C(=C(\c3ccccc3)c3cc(C(F)(F)F)ccc3Cl)c3ccccc32)c1 [Example 64, 3-{3-[1-(2-Chloro-5-trifluoromethyl-phenyl)-1-phenyl-meth-(E)-ylidene]-2-oxo-2,3-dihydro-indol-1-ylmethyl}-benzoic acid]",6.63
20,"COC(=O)c1cccc(CN2C(=O)/C(=C(\c3ccccc3)c3ccc(OC)cc3)c3ccccc32)c1 [Example 8, 3-{3-[1-(4-Methoxy-phenyl)-1-phenyl-meth-(E)-ylidene]-2-oxo-2,3-dihydro-indol-1-ylmethyl}-benzoic acid methyl ester]",6.47
21,"COC(=O)c1cccc(CN2C(=O)/C(=C(/c3ccccc3)C(C)C)c3ccccc32)c1 [Example 85, 3-{3-[2-Methyl-1-phenyl-prop-(E)-ylidene]-2-oxo-2,3-dihydro-indol-1-ylmethyl}-benzoic acid methyl ester]",4.9
22,"COC(=O)c1cccc(CN2C(=O)/C(=C(\c3ccccc3)c3ccc(C(F)(F)F)cc3)c3ccccc32)c1 [Example 12, 3-{2-Oxo-3-[1-phenyl-1-(4-trifluoromethyl-phenyl)-meth-(E)-ylidene]-2,3-dihydro-indol-1-ylmethyl}-benzoic acid methyl ester]",5.34
23,"COC(=O)c1cccc(CN2C(=O)/C(=C(\c3ccccc3)c3ccc(Cl)cc3)c3cc(F)cc(Cl)c32)c1 [Example 29, 3-{7-Chloro-3-[1-(4-chloro-phenyl)-1-phenyl-meth-(E)-ylidene]-5-fluoro-2-oxo-2,3-dihydro-indol-1-ylmethyl}-benzoic acid methyl ester]",2.36
24,"COc1ccc2c(c1)/C(=C(/c1ccccc1)c1ccc(Cl)cc1)C(=O)N2Cc1cccc(C(=O)O)c1 [Example 58, 3-{3-[1-(4-Chloro-phenyl)-1-phenyl-meth-(E)-ylidene]-5-methoxy-2-oxo-2,3-dihydro-indol-1-ylmethyl}-benzoic acid]",4.87
25,"O=C(O)c1cccc(CN2C(=O)/C(=C(\c3ccccc3)c3ccc(F)c(Cl)c3)c3ccccc32)c1 [Example 50, 3-{3-[1-(3-Chloro-4-fluoro-phenyl)-1-phenyl-meth-(E)-ylidene]-2-oxo-2,3-dihydro-indol-1-ylmethyl}-benzoic acid]",5.89
26,"COC(=O)c1cccc(CN2C(=O)/C(=C(\c3ccccc3)c3ccccc3SC)c3ccccc32)c1 [Example 28, 3-{3-[1-(2-Methylsulfanyl-phenyl)-1-phenyl-meth-(E)-ylidene]-2-oxo-2,3-dihydro-indol-1-ylmethyl}-benzoic acid methyl ester]",0.8
27,"COC(=O)c1cccc(CN2C(=O)/C(=C(\c3ccccc3)c3ccccc3Br)c3ccccc32)c1 [Example 23, 3-{3-[1-(2-Bromo-phenyl)-1-phenyl-meth-(E)-ylidene]-2-oxo-2,3-dihydro-indol-1-ylmethyl}-benzoic acid methyl ester]",6.97
